Measured values as given in patent US20250282723A1, “AMYLOID TARGETING AGENTS AND METHODS OF USING THE SAME” (The Regents of the University of California, priority 2021, published 2025).

Assay: Quantum yield measurements
Format: physicochemical
Details: 5% DMSO/H2O, reference standard Coumarin 30; for Quantum Yield (Φ): probes of FIG. 14
Experimental: Quantum Yield Measurements. To determine the quantum yield (QY) of compounds ARCAM, 1-5, a procedure that was similar to a previously reported protocol for estimating the QY for Thioflavin T^24 was used. Briefly, the absorbance spectrum of each probe (in 5% Dimethyl Sulfoxide (DMSO)/water (H2O)), in addition to the absorbance spectrum for the reference standard (Coumarin 30, QY=0.67)^27 was measured. The wavelength at which the two normalized absorbance curves intersected was used as the excitation wavelength. A serial dilution of each probe and the standard was made with absorbance values at the excitation wavelength in the range of 0 to 0.1 absorbance units. At each concentration, the emission spectra for each probe and the standard were measured. Technical triplicates of these experiments were performed for all probes, and the averages were recorded. From these emission spectra, the area under the curve was calculated and plotted against the absorbance at each concentration (FIGS. 3-7). The data were fitted to Equation 1 to obtain estimates for QY: […]
where QY represents the quantum yield, A represents the absorbance, E represents the integrated fluorescence emission, η represents the refractive index of the solvent^28,29, and the ‘p’ and ‘r’ subscripts signify the probe or the reference compound, respectively.
Quantum Yield ((D) for each probe was measured as described previously.^31 Briefly, we measured the absorbance spectrum of each probe in 5% DMSO/H2O, as well as the absorbance spectrum for the reference standard (Coumarin 30, =0.67 in Acetonitrile). Both normalized absorbance curves were plotted, and the wavelength of intersection was used as the excitation wavelength. A serial dilution was made for each probe and the standard with absorbance values at the excitation wavelength varying between of 0 to 0.1 absorbance units. At each concentration, the emission spectra for each probe and the standard were measured. Each experiment was repeated in technical triplicates for all probes, and the averages were recorded. The integrated fluorescence emission was calculated and plotted against the absorbance at each concentration. The data were fitted to Equation Si to obtain estimates for Φ: […]
where Φ represents the quantum yield, A represents the absorbance, E represents the integrated fluorescence emission, η represents the refractive index of the solvent, and the ‘p’ and ‘r’ subscripts signify the probe or the reference compound, respectively.

Row | SMILES | QY | Quantum Yield (Φ)
1 | COCCOCCOCCNC(=O)C(C#N)=Cc1ccc2cc(N3CCCCC3)ccc2c1 (mixture of isomers) [Compound 1] | 0.0066 ± 0.0023 | 0.0066
2 | COCCOCCOCCNC(=O)/C(C#N)=C/c1ccc2cc(N3CCCCC3C)ccc2c1 (racemic) [Compound 4, (E)-2-cyano-N-(2-(2-(2-methoxyethoxy)ethoxy)ethyl)-3-(6-(2-methylpiperidin-1-yl)naphthalen-2-yl)acrylamide] | 0.0062 ± 0.0003 | 0.0062
3 | CCC1CCCCN1c1ccc2cc(/C=C(\C#N)C(=O)NCCOCCOCCOC)ccc2c1 (racemic) [Compound 5, (E)-2-cyano-3-(6-(2-ethylpiperidin-1-yl)naphthalen-2-yl)-N-(2-(2-(2-methoxyethoxy)ethoxy)ethyl)acrylamide] | 0.0055 ± 0.0010 | 0.0055
